Like-named read-outs stand apart in the source and are kept apart here.
Key:
human PBM cells [1] = experiment: Toxicity assay (MTS/MTT dye), human PBM cells; conditions: read-out: Cytotoxicity PBM IC50; human PBM cells, 5 days incubation
Description: (§1) After a three day-incubation for HepG2, or 5 days for human PBM cells, cell viability and mitochondrial activity were measured in a colorimetric assay using the MTS- or MTT dye method (Promega, Madison, Wis.).

human PBM cells [2] = experiment: in vitro; assay type: cell-based
Description: The compounds were evaluated for their potential toxic effects on uninfected PHA-stimulated human PBM cells, in CEM (T-lymphoblastoid cell line obtained from American Type Culture Collection, Rockville, Md.) and Vero (African green monkey kidney) cells. PBM cells were obtained from whole blood of healthy seronegative donors (HIV-1 and hepatitis B virus) by single-step Ficoll-Hypaque discontinous gradient centrifugation. […] All of the cells were plated in 96-well cell culture plates containing ten-fold serial dilutions of the test drug. […] At the end of incubation, MTT tetrazolium dye solution (Cell titer 96®, Promega, Madison, Wis.) was added to each well and incubated overnight. The reaction was stopped with stop solubilization solution (Promega, Madison, Wis.). The plates were incubated for 5 hours to ensure that the formazan crystals were dissolved. The plates were read at a wavelength of 570 nm using an ELISA plate reader (Bio-tek instruments, Inc., Winooski, Vt., Model # EL 312e). […] Bookmark not defined.

[3] = system: CEM (T-lymphoblastoid cell line); assay type: cell-based
Description: (§2) The compounds were evaluated for their potential toxic effects on uninfected PHA-stimulated human PBM cells, in CEM (T-lymphoblastoid cell line obtained from American Type Culture Collection, Rockville, Md.) and Vero (African green monkey kidney) cells. PBM cells were obtained from whole blood of healthy seronegative donors (HIV-1 and hepatitis B virus) by single-step Ficoll-Hypaque discontinous gradient centrifugation. Log phase Vero, CEM and PHA-stimulated human PBM cells were seeded at a density of 5×10^3, 2.5×10^3 and 5×10^4 cells/well respectively. All of the cells were plated in 96-well cell culture plates containing ten-fold serial dilutions of the test drug. The cultures were incubated for 3, 4 and 5 days for Vero, CEM, and PBM cells, respectively in a humidified 5% CO2-air at 37° C. At the end of incubation, MTT tetrazolium dye solution (Cell titer 96®, Promega, Madison, Wis.) was added to each well and incubated overnight. The reaction was stopped with stop solubilization solution (Promega, Madison, Wis.). The plates were incubated for 5 hours to ensure that the formazan crystals were dissolved. The plates were read at a wavelength of 570 nm using an ELISA plate reader (Bio-tek instruments, Inc., Winooski, Vt., Model # EL 312e). […] Bookmark not defined.

[4] = system: Vero (African green monkey kidney) cells; experiment: in vitro; assay type: cell-based
Description: as §2

HIV-1xxBRU = experiment: Antiviral activity in human PBM cells, HIV-1xxBRU; assay type: cell-based; conditions: read-out: xxBRU (EC90)
Source text: (§3) Human peripheral blood mononuclear (PBM) cells (obtained from Atlanta Red Cross) were isolated by Ficoll-Hypaque discontinuous gradient centrifugation from healthy seronegative donors. Cells were stimulated with phytohemagglutinin A (Difco, Sparks, Md.) for 2-3 days prior to use. HIV-1LAI obtained from the Centers for Disease Control and Prevention (Atlanta, Ga.) was used as the standard reference virus for the antiviral assays. The molecular infetious clones HIV-1xxBru and HIV-1M184Vpin were obtained from Dr. John Mellors (University of Pittsburgh). Infections were done in bulk for one hour, either with 100 TCID50/1×10^7 cells for a flask (T25) assay or with 200 TCID50/6×10^5 cells/well for a 24 well plate assay. Cells were added to a plate or flask containing a ten-fold serial dilution of the test compound. Assay medium was RPMI-1640 supplemented with heat inactivated 16% fetal bovine serum, 1.6 mM L-glutamine, 80 IU/ml penicillin, 80 μg/ml streptomycin, 0.0008% DEAE-Dextran, 0.045% sodium bicarbonate, and 26 IU/ml recombinant interleukin-2 (Chiron Corp, Emeryville, Calif.). […] Untreated and uninfected PBM cells were grown in parallel at equivalent cell concentrations as controls. The cell cultures were maintained in a humidified 5% CO2-air at 37° C. for 5 days and supernatants were collected for reverse transcriptase (RT) activity.
Supernatants were centrifuged at 12,000 rpm for 2 hours to pellet the virus. The pellet was solubilized with vortexing in 100 μl virus solubilization buffer (VSB) containing 0.5% Triton X-100, 0.8 M NaCl, 0.5 mM phenylmethylsulfonyl fluoride, 20% glycerol, and 0.05 M Tris, pH 7.8. Ten μL of each sample were added to 75 μL RT reaction mixture (0.06 M Tris, pH 7.8, 0.012 M MgCl2, 0.006 M dithiothreitol, 0.006 mg/ml poly (rA)n, oligo (dT)12-18, 96 μg/ml dATP, and 1 μM of 0.08 mCi/ml ^3H-thymidine triphosphate (Moravek Biochemicals, Brea, Calif.) and incubated at 37° C. for 2 hours. The reaction was stopped by the addition of 100 μL 10% trichloroacetic acid containing 0.05% sodium pyrophosphate. The acid insoluble product was harvested onto filter paper using a Packard Harvester (Meriden, Conn.), and the RT activity was read on a Packard Direct Beta Counter (Meriden, Conn.). The RT results were expressed in counts per minute (CPM) per milliliter. […]

HIV-1M184V = experiment: Antiviral activity against lamivudine-resistant (HIV-1M184V) mutant strain in human PBM cells; assay type: cell-based; conditions: for EC90: read-out: M184V (EC90)
Source text: as §3
Supernatants were centrifuged at 12,000 rpm for 2 hours to pellet the virus. The pellet was solubilized with vortexing in 100 μl virus solubilization buffer (VSB) containing 0.5% Triton X-100, 0.8 M NaCl, 0.5 mM phenylmethylsulfonyl fluoride, 20% glycerol, and 0.05 M Tris, pH 7.8. Ten μL of each sample were added to 75 μL RT reaction mixture (0.06 M Tris, pH 7.8, 0.012 M MgCl2, 0.006 M dithiothreitol, 0.006 mg/ml poly (rA)n, oligo (dT)12-18, 96 μg/ml dATP, and 1 μM of 0.08 mCi/ml ^3H-thymidine triphosphate (Moravek Biochemicals, Brea, Calif.) and incubated at 37° C. for 2 hours. The reaction was stopped by the addition of 100 μL 10% trichloroacetic acid containing 0.05% sodium pyrophosphate. The acid insoluble product was harvested onto filter paper using a Packard Harvester (Meriden, Conn.), and the RT activity was read on a Packard Direct Beta Counter (Meriden, Conn.). The RT results were expressed in counts per minute (CPM) per milliliter.
A single mutation at residue 184 (M184V) in the catalytic domain of HIV-1 RT bring about a high-level of resistance to 3TC, causing the 50% inhibitory concentration of 3TC to be increased at least 1,000-fold (Schinazi, R. F.; Lloyd, Jr. R. M.; Nguyen, M. -H.; Cannon, D. L.; McMillan, A.; Ilksoy, N.; Chu, C. K.; Liotta, D. C.; Bazni, H. Z.; Mellors, J. W. Characterizatin of human immunodeficiency viruses resistant to oxthiolane-cytosine nucleosides. Antimicrob Agents Chemother. 1993, 37, 875-881; Tisdale, M.; Kemp, S. D.; Parry, N. R.; Larder, B. A. Rapid in vitro selection of human immunodeficiency virus type 1 resistant to 3′-thiacytidine inhibitors due to a mutation in the YMDD region of reverse transcnptase. Proc. Natl. Acad. Sci. USA 1993, 90, 5653-5656), contributing to the failure of anti-AIDS combination therapy. […] K. Synthesis and anti-HIV and anti-HBV activities of 2′-fluoro-2′,3′-unsaturated L-nucleosides.

in vitro [5] = conditions: human
Description: as §1

in vitro [6] = conditions: human; remark: listed apart in the source
Description: as §1

[7] = Human immunodeficiency virus 1, PBMC

SMILES	IC50 (human PBM cells [1])	IC50 (human PBM cells [2])	IC50 [3]	IC50 [4]	EC90 (HIV-1xxBRU; human PBM cells)	FI, fold increase (EC90 HIV-1M184V/EC90 HIV-1xxBRU) (HIV-1M184V; human PBM cells)	EC90 (HIV-1M184V; human PBM cells)	IC50 at 5 days (in vitro [5])	IC50 at 3 days (in vitro [6])	IC50 ([3]; human, 4 days)	EC90 (HIV-1xxBRU; [7])	EC90 (HIV-1M184V; [7])
Nc1ccn([C@@H]2S[C@H](CO)C=C2F)c(=O)n1 [Compound D-17, (−)-1-[(1S,4R)-2,3-dideoxy-2,3-didehydro-2-fluoro4-thio-β-D-ribofuranosyl]-cytosine]	> 100 µM	> 100 µM	> 100 µM	> 100 µM	5 µM	25	~125 µM					
Cc1cn([C@H]2C[C@H](N=[N+]=[N-])[C@@H](CO)O2)c(=O)[nH]c1=O [AZT, 3′-azido-3′-deoxythymidine, reference compound]								> 100 µM	> 100 µM	29 µM	0.01 µM	0.003 µM
Nc1ccn([C@H]2S[C@@H](CO)C=C2F)c(=O)n1 [Compound L-17, (+)-1-[(1S,4R)-2,3-dideoxy-2,3-didehydro-2-fluoro-4-thio-β-L-ribofuranosyl]-cytosine]	> 100 µM	> 100 µM	> 100 µM	> 100 µM	1.4 µM	>100	> 100 µM					
Nc1nc(=O)n([C@H]2S[C@@H](CO)C=C2F)cc1F [Compound L-18, (+)-1-[(1S,4R)-2,3-dideoxy-2,3-didehydro-2-fluoro-4-thio-β-L-ribofuranosyl]-5-fluoro-cytosine]	> 100 µM	> 100 µM	> 100 µM	> 100 µM								
Nc1ccn([C@@H]2C=C(F)[C@H](CO)O2)c(=O)n1 [Compound 10, 1-(2,3-Dideoxy-3-fluoro-β-L-glycero-pent-2-eno-furanosyl)cytosine]								> 100 µM	> 100 µM			
Nc1ccn([C@@H]2C=C(F)[C@H](CO)O2)c(=O)n1 [Compound 23, 1-(2,3-Didcoxy-3-fluoro-β-L-glycero-pent-2-eno-furanosyl)cytosine]	87 µM											
Nc1ccn([C@@H]2CS[C@H](CO)O2)c(=O)n1 [Compound 3TC, (−)-β-2′,3′-dideoxy-3′-thiacytidine, reference compound]						6,688		> 100 µM	> 100 µM		0.08 µM	535 µM
Nc1nc(=O)n([C@@H]2S[C@H](CO)C=C2F)cc1F [Compound D-18, (−)-1-[(1S,4R)-2,3-dideoxy-2,3-didehydro-2-fluoro-4-thio-β-D-ribofuranosyl]-5-fluorocytosine]	> 100 µM	> 100 µM	> 100 µM	> 100 µM								

Reference: US6949522B2, “β-2′- or 3′-halonucleosides” (Pharmasset, Inc., priority 2001, dated 2005)
